# Assay results as given in patent US8735363B2, “Preparation and application of heparin silver” (priority 2005, dated 2014).
# Experiments:
# [1] = system: hyperplastic scar wound surface; test: Animal model of hyperplastic scar (excised whole-thickness skin wound); type: in vivo, New-Zealand rabbit
# Method: The scar tissue was subjected to Masson staining and observed under light microscope, and the thickness of dermis (Da) of wound surface after epithelization and the thickness of dermis (Db) of adjacent normal tissue were measured.
# [2] = system: deep second degree scald wound surface; test: Animal model of burn (deep second degree steam scald); type: in vivo, Rats
# Method: After rats were wounded, samples were taken at intervals of time. The wet weight of wound surface tissue (Ga) and the tissue dry weight (Gb) after baking at 80° C. for 72 hours were measured by weighting method. The water content of wound surface was calculated as W=(Ga−Gb)/Ga×100%, wherein W represented the degree of edema.
substance,measurement,setting,value
heparin silver,"Scar index, 60 days","[1]; 60 days, scar index = (Da−Db)/Db, dermis thickness, Masson staining",2.06 ± 0.83 (n = 6)
same,"Scar index, 180 days","[1]; 180 days, scar index = (Da−Db)/Db, dermis thickness, Masson staining",1.85 ± 0.52 (n = 6)
same,Healing time of wound surface (days),"[1]; rabbit 2 cm×5 cm excision wound, dressing with powder changed once per week, healed = scab less than 5% of wound area",21.4 ± 2.16 (n = 6) days
same,Water content of wound surface (W),"[2]; 8 h after wounding, W=(Ga−Gb)/Ga×100%, degree of edema",80.25 ± 2.78 (n = 6) %
same,Water content of wound surface (W),[2]; 24 h after wounding,70.82 ± 3.56 (n = 6) %
same,Hydroxyproline content of wound surface,"[2]; 1 d after wounding, chloramine T oxidization method",18.55 ± 2.13 (n = 5) ug/mL
same,Hydroxyproline content of wound surface,[2]; 2 d after wounding,20.45 ± 2.12 (n = 5) ug/mL
same,Water content of wound surface (W),[2]; 48 h after wounding,70.16 ± 2.64 (n = 6) %
same,Hydroxyproline content of wound surface,[2]; 3 d after wounding,22.04 ± 1.35 (n = 5) ug/mL
same,Water content of wound surface (W),[2]; 72 h after wounding,68.44 ± 1.32 (n = 5) %
same,Hydroxyproline content of wound surface,[2]; 5 d after wounding,23.27 ± 2.11 (n = 6) ug/mL
same,Water content of wound surface (W),[2]; 5 d after wounding,67.61 ± 2.85 (n = 5) %
same,Hydroxyproline content of wound surface,[2]; 7 d after wounding,23.96 ± 2.54 (n = 6) ug/mL
same,Water content of wound surface (W),[2]; 7 d after wounding,67.52 ± 1.36 (n = 5) %
same,Hydroxyproline content of wound surface,[2]; 10 d after wounding,26.87 ± 2.36 (n = 6) ug/mL
same,Hydroxyproline content of wound surface,[2]; 14 d after wounding,26.91 ± 2.14 (n = 6) ug/mL
same,Hydroxyproline content of wound surface,[2]; 21 d after wounding,24.05 ± 1.74 (n = 7) ug/mL
same,Healing Time (d),"[2]; rat 20% area deep second degree scald, powder dressing 0.5-1 mm changed once per day",21.5 ± 2.2 (n = 8) d
same,effect in the treatment of burns and/or scalds (animal test),[2]; summary statement,"accelerating healing speed, reducing occurrence of infection and inflammation, and improving healing quality of wound surface"
